Laboratory results as given in patent publication US20090264492A1, “PHARMACEUTICAL COMPOSITION FOR THE TREATMENT OF A FUNGAL SKIN DISORDER AND A METHOD FOR THE PREPARATION THEREOF” (Stichting Voor de Technische Wetenschappen, priority 2006, published 2009).

Legend:
[1] = tested on: the fungus cultivated in suspension; test: binding of Sylsens B to the fungus cultivated in suspension / photodynamic effect with competing cations; format: cell-based, T. rubrum; conditions: in the presence of 5 mM CaCl2 at pH 5.2
Method: In the above experiments, deuteroporphyrin monomethylether (DP mme), an anionic porphyrin, was used as a control. […] The effect of calcium-ions was investigated by determining the photodynamic effect in the presence of 5 mM CaCl2 at pH 5.2. […] So, PDT may even be used to inactivate (kill) the growing fungus if measures are taken to prevent naturally present calcium from interfering with the treatment, in particular by using a chelating compound such as EDTA.

T. rubrum = test: PDT of T. rubrum on human stratum corneum (ex-vivo model), fungicidal effect; format: cell-based, Trichophyton rubrum; conditions: for relative frequency of the fungicidal effect: read day 8; for MIC (Minimum Inhibitory Concentration): 2 h incubation in water, 1 h 30 mW/cm^2 red light
Method: A polycarbonate membrane filter, 25 mm in diameter and a pore size of 2 μm (Whatman, Breda, The Netherlands) was placed in the central part of a 3 cm culture dish (Greiner, Alphen aan den Rijn, The Netherlands) filled with 5 ml of Malt Extract Agar (MEA). A circular piece of human stratum corneum (SC) with a diameter of 1 cm was subsequently placed on the membrane filter and both were gently brushed with a paintbrush dipped in 70% ethanol. A microconidia suspension isolated from Trichphyton rubrum (CBS nr. 304.60 obtained from Centraal Bureau voor Schimmelcultures, Utrecht, The Netherlands, and prepared as described by Smijs G. M. T. et al (2004) in “Photodynamic treatment of the dermatophyte Trichophyton Rubrum and its microconidia with porphyrin sensitizers. PhotoChemistry and PhotoBiology, 80, 197 - 202”) was diluted to 1000 CFU/ml and 15 μl was inoculated on the circular sheet of human SC. The dish was placed in an incubator at 28° C. and at 17 hours after spore inoculation photodynamic treatment (PDT) was applied.
At 17 hours after spore inoculation, the membrane filter with SC containing spore inoculates was transported from the MEA dish to a 3 cm culture dish filled with 1035 μl incubation medium. The incubation medium contained 1 ml of distilled water with an adjusted pH (3.5, 4.5, 5.2, or 7.4) and 35 μl of a Sylsens B stock solution (Buchem, Apeldoorn, the Nederland) . To optimize the contact of the inoculates with the incubation medium, the membrane filter with the SC was turned upside down during the incubation period of 2 hours. The incubation was performed under continuous shaking conditions. Shortly before the illumination period the membrane filter containing the SC was turned back (surface SC now faces the lamp). In all cases, the illumination time was 1 hour using a red light irradiance of 30 mW/cm^2. This corresponds to a light dose of 108 J/cm^2. After the illumination the membrane filter with the SC were transported to a fresh MEA dish, placed in a 28° C. incubator and fungal growth was followed for several weeks. Dark controls were included, i.e. the same procedure was carried out except that the inoculated microconidia on human skin were treated with solvent and/or photosensitizer in the dark. In the light controls, the microconidia were treated with solvent (only) in the presence of light. The efficacy of the treatment was expressed as a relative frequency of complete inactivation (killing) of fungal growth detected at day 8 after spore inoculation. This was assessed microscopically with the use of a Zeiss Axiovert 25 (Germany). […] The treatment effect was followed for a period of several months. Every experiment contained 4 to 6 duplicates of all conditions and the experiments were repeated 3 times at least.
PDT of T. rubrum 17 hours after spore inoculation using the ex-vivo model, different concentrations of Sylsens B and a different pH (water medium). The numbers indicate the relative frequency of the fungicidal effect^1. Numbers between brackets give the number of tests performed.
The experiment with Sylsens B was repeated more extensively, for a longer period of time and with more samples. More specifically, the photodynamic efficacy of Sylsens B towards T. rubrum was tested at 17 (FIG. 2a), 48 (FIG. 2b) and 72 hours (FIG. 2c) after spore inoculation on human SC, at the following incubation pH values: Filled diamonds: pH 3.5, filled squares: pH 5.2 and filled triangles: pH 7.4.

[2] = production of 1O2 over the pH range; format: physicochemical; conditions: over the pH range used

## C[n+]1ccc(-c2c3nc(c(-c4cc[n+](C)cc4)c4ccc([nH]4)c(-c4cc[n+](C)cc4)c4nc(c(-c5ccccc5)c5ccc2[nH]5)C=C4)C=C3)cc1.[Cl-].[Cl-].[Cl-] [Sylsens B, 5,10,15-tris(4-methylpyridinium)-20-phenyl-[21H,23H]-porphine trichloride]
[1]
  binding of Sylsens B to the fungus: eliminated binding
T. rubrum; 0.5 μM, pH 3.5, illuminated, PDT 17 h after spore inoculation
  relative frequency of the fungicidal effect: 0 (6)
T. rubrum; 0.5 μM, pH 5.2, illuminated, PDT 17 h after spore inoculation
  relative frequency of the fungicidal effect: 0 (3)
T. rubrum; 0.5 μM, pH 7.4, illuminated, PDT 17 h after spore inoculation
  relative frequency of the fungicidal effect: 0 (6)
T. rubrum; 1 μM, pH 3.5, dark control, 17 h after spore inoculation
  relative frequency of the fungicidal effect: 0 (2)
T. rubrum; 1 μM, pH 3.5, illuminated, 17 h after spore inoculation
  relative frequency of the fungicidal effect: 0 (6)
T. rubrum; 1 μM, pH 5.2, dark control, 17 h after spore inoculation
  relative frequency of the fungicidal effect: 0 (2)
T. rubrum; 1 μM, pH 5.2, illuminated, 17 h after spore inoculation
  relative frequency of the fungicidal effect: 0 (3)
T. rubrum; 1 μM, pH 7.4, dark control, 17 h after spore inoculation
  relative frequency of the fungicidal effect: 0 (2)
T. rubrum; 1 μM, pH 7.4, illuminated, 17 h after spore inoculation
  relative frequency of the fungicidal effect: 0 (6)
T. rubrum; 5 μM, pH 3.5, dark control, 17 h after spore inoculation
  relative frequency of the fungicidal effect: 0 (2)
T. rubrum; 5 μM, pH 3.5, illuminated, 17 h after spore inoculation
  relative frequency of the fungicidal effect: 0.2 (10)
T. rubrum; 5 μM, pH 5.2, dark control, 17 h after spore inoculation
  relative frequency of the fungicidal effect: 0 (4)
T. rubrum; 5 μM, pH 5.2, illuminated, 17 h after spore inoculation
  relative frequency of the fungicidal effect: 0.43 (7)
T. rubrum; 5 μM, pH 7.4, dark control, 17 h after spore inoculation
  relative frequency of the fungicidal effect: 0 (6)
T. rubrum; 5 μM, pH 7.4, illuminated, 17 h after spore inoculation
  relative frequency of the fungicidal effect: 0.4 (12)
T. rubrum; 6 μM, pH 3.5, illuminated, 17 h after spore inoculation
  relative frequency of the fungicidal effect: 0.5 (2)
T. rubrum; 6 μM, pH 5.2, illuminated, 17 h after spore inoculation
  relative frequency of the fungicidal effect: 1 (4)
T. rubrum; 6 μM, pH 7.4, dark control, 17 h after spore inoculation
  relative frequency of the fungicidal effect: 0 (6)
T. rubrum; 6 μM, pH 7.4, illuminated, 17 h after spore inoculation
  relative frequency of the fungicidal effect: 0.2 (12)
T. rubrum; 7 μM, pH 5.2, illuminated, 17 h after spore inoculation
  relative frequency of the fungicidal effect: 1 (4)
T. rubrum; 8 μM, pH 3.5, illuminated, 17 h after spore inoculation
  relative frequency of the fungicidal effect: 0.75 (4)
T. rubrum; 8 μM, pH 5.2, illuminated, 17 h after spore inoculation
  relative frequency of the fungicidal effect: 1 (4)
T. rubrum; 8 μM, pH 7.4, dark control, 17 h after spore inoculation
  relative frequency of the fungicidal effect: 0 (6)
T. rubrum; 8 μM, pH 7.4, illuminated, 17 h after spore inoculation
  relative frequency of the fungicidal effect: 0.6 (12)
T. rubrum; 9 μM, pH 5.2, illuminated, 17 h after spore inoculation
  relative frequency of the fungicidal effect: 1 (4)
T. rubrum; 10 μM, pH 3.5, dark control, 17 h after spore inoculation
  relative frequency of the fungicidal effect: 0 (2)
T. rubrum; 10 μM, pH 3.5, illuminated, 17 h after spore inoculation
  relative frequency of the fungicidal effect: 0.8 (10)
T. rubrum; 10 μM, pH 5.2, dark control, 17 h after spore inoculation
  relative frequency of the fungicidal effect: 0 (4)
T. rubrum; 10 μM, pH 5.2, illuminated, 17 h after spore inoculation
  relative frequency of the fungicidal effect: 1 (9)
T. rubrum; 10 μM, pH 7.4, dark control, 17 h after spore inoculation
  relative frequency of the fungicidal effect: 0 (6)
T. rubrum; 10 μM, pH 7.4, illuminated, 17 h after spore inoculation
  relative frequency of the fungicidal effect: 0.6 (12)
T. rubrum; 15 μM, pH 3.5, illuminated, 17 h after spore inoculation
  relative frequency of the fungicidal effect: 1 (4)
T. rubrum; 15 μM, pH 5.2, illuminated, 17 h after spore inoculation
  relative frequency of the fungicidal effect: 1 (4)
T. rubrum; 15 μM, pH 7.4, dark control, 17 h after spore inoculation
  relative frequency of the fungicidal effect: 0.5 (6)
T. rubrum; 15 μM, pH 7.4, illuminated, 17 h after spore inoculation
  relative frequency of the fungicidal effect: 0.7 (12)
T. rubrum; 20 μM, pH 3.5, dark control, 17 h after spore inoculation
  relative frequency of the fungicidal effect: 0 (2)
T. rubrum; 20 μM, pH 3.5, illuminated, 17 h after spore inoculation
  relative frequency of the fungicidal effect: 1 (4)
T. rubrum; 20 μM, pH 5.2, dark control, 17 h after spore inoculation
  relative frequency of the fungicidal effect: 0 (2)
T. rubrum; 20 μM, pH 7.4, dark control, 17 h after spore inoculation
  relative frequency of the fungicidal effect: 0.3 (6)
T. rubrum; 20 μM, pH 7.4, illuminated, 17 h after spore inoculation
  relative frequency of the fungicidal effect: 0.6 (12)
T. rubrum; 30 μM, pH 3.5, dark control, 17 h after spore inoculation
  relative frequency of the fungicidal effect: 0.5 (2)
T. rubrum; 30 μM, pH 3.5, illuminated, 17 h after spore inoculation
  relative frequency of the fungicidal effect: 1 (4)
T. rubrum; 30 μM, pH 5.2, dark control, 17 h after spore inoculation
  relative frequency of the fungicidal effect: 1 (2)
T. rubrum; 30 μM, pH 5.2, illuminated, 17 h after spore inoculation
  relative frequency of the fungicidal effect: 1 (5)
T. rubrum; 30 μM, pH 7.4, dark control, 17 h after spore inoculation
  relative frequency of the fungicidal effect: 0.3 (6)
T. rubrum; 30 μM, pH 7.4, illuminated, 17 h after spore inoculation
  relative frequency of the fungicidal effect: 0.6 (12)
T. rubrum; 40 μM, pH 3.5, illuminated, 17 h after spore inoculation
  relative frequency of the fungicidal effect: 1 (4)
T. rubrum; 40 μM, pH 7.4, dark control, 17 h after spore inoculation
  relative frequency of the fungicidal effect: 0 (6)
T. rubrum; 40 μM, pH 7.4, illuminated, 17 h after spore inoculation
  relative frequency of the fungicidal effect: 1 (12)
T. rubrum; 50 μM, pH 3.5, dark control, 17 h after spore inoculation
  relative frequency of the fungicidal effect: 0.5 (2)
T. rubrum; 50 μM, pH 3.5, illuminated, 17 h after spore inoculation
  relative frequency of the fungicidal effect: 1 (10)
T. rubrum; 50 μM, pH 5.2, dark control, 17 h after spore inoculation
  relative frequency of the fungicidal effect: 1 (2)
T. rubrum; 50 μM, pH 5.2, illuminated, 17 h after spore inoculation
  relative frequency of the fungicidal effect: 1 (3)
T. rubrum; 50 μM, pH 7.4, dark control, 17 h after spore inoculation
  relative frequency of the fungicidal effect: 0.5 (6)
T. rubrum; 50 μM, pH 7.4, illuminated, 17 h after spore inoculation
  relative frequency of the fungicidal effect: 0.9 (12)
T. rubrum; 65 μM, pH 3.5, dark control, 17 h after spore inoculation
  relative frequency of the fungicidal effect: 1 (2)
T. rubrum; 65 μM, pH 3.5, illuminated, 17 h after spore inoculation
  relative frequency of the fungicidal effect: 1 (4)
T. rubrum; 65 μM, pH 7.4, dark control, 17 h after spore inoculation
  relative frequency of the fungicidal effect: 1 (6)
T. rubrum; 65 μM, pH 7.4, illuminated, 17 h after spore inoculation
  relative frequency of the fungicidal effect: 1 (12)
T. rubrum; 80 μM, pH 3.5, dark control, 17 h after spore inoculation
  relative frequency of the fungicidal effect: 0.5 (4)
T. rubrum; 80 μM, pH 3.5, illuminated, 17 h after spore inoculation
  relative frequency of the fungicidal effect: 1 (8)
T. rubrum; 80 μM, pH 5.2, dark control, 17 h after spore inoculation
  relative frequency of the fungicidal effect: 1 (2)
T. rubrum; 80 μM, pH 5.2, illuminated, 17 h after spore inoculation
  relative frequency of the fungicidal effect: 1 (3)
T. rubrum; 80 μM, pH 7.4, dark control, 17 h after spore inoculation
  relative frequency of the fungicidal effect: 1 (6)
T. rubrum; 80 μM, pH 7.4, illuminated, 17 h after spore inoculation
  relative frequency of the fungicidal effect: 1 (12)
T. rubrum; 17-hour stage after spore inoculation
  cfu in dark controls: 8 to 12 cfu
T. rubrum; 48-hour and 72 hour stage, concentrations higher than 80 μM
  cfu in dark controls: 5 to 8 cfu
T. rubrum; 48-hour and 72 hour stage, up to 80 μM Sylsens B
  cfu in dark controls: 8 to 12 cfu
T. rubrum; pH 5.2, PDT 17 h after spore inoculation
  MIC (Minimum Inhibitory Concentration): 5 to 6 µM
T. rubrum; pH 7.4, PDT 17 h after spore inoculation
  MIC (Minimum Inhibitory Concentration): ≧50 μM
[2]
  production of 1O2: substantially constant
